According to the supplement of paper PMC10307832:

Compound: CC(C)(C)c1nc(-c2cccc(NS(=O)(=O)c3c(F)cccc3F)c2F)c(-c2ccnc(N)n2)s1 [Dabrafenib] + NC(=O)Nc1cc(-c2cccc(F)c2)sc1C(=O)N[C@H]1CCCNC1 [AZD7762] (partner 0.2 µM)
Assay: relative viability (nuclei count vs DMSO), 5 days (fraction); higher = more cells survive
Conditions: first compound 0.3 µM
How it was run: (§1)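 For relative viability, nuclei counts in treated wells were divided by those in vehicle wells. Lung cancer cell lines had been pin-tool dosed in 1536-well plates the day after seeding and cultured for 5 days, then fixed and stained in one step (final 0.05% Triton X-100, 1% formaldehyde, 1 ug/ml Hoechst) and imaged at 4×. Doses were one drug alone or a fixed anchor-drug dose plus five library-drug doses (not always all listed) in √10 steps, and values are duplicate-plate medians.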

Q: With PC-3 [JPC-3] as the cell line, how does the relative viability read?
A: The relative viability was 1.07.

Q: For NCI-H2347, which relative viability is on record?
A: Its relative viability is 0.598.

Q: For LXF-289, which relative viability is on record?
A: Its relative viability is 1.29.

Q: For NCI-H358, which relative viability is on record?
A: The relative viability was 0.775.

Q: LC-2-ad was tested. Which relative viability did it give?
A: The relative viability was 1.07.

Q: 201T was tested. Which relative viability did it give?
A: The relative viability was 0.475.

Q: Which relative viability does the source give for NCI-H1666 here?
A: The relative viability was 0.937.

Q: NCI-H322M was tested. Which relative viability did it give?
A: The relative viability was 0.612.

Q: With HARA as the cell line, how does the relative viability read?
A: Its relative viability is 0.312.

Q: How did the relative viability turn out when NCI-H1395 was run?
A: Its relative viability is 0.412.

Compound: NC(=O)c1ccc(N(C(N)=O)c2c(F)cccc2F)nc1-c1ccc(F)cc1F [VX-702] + Cc1nc(NC(=O)N2CCC[C@H]2C(N)=O)sc1-c1ccnc(C(C)(C)C(F)(F)F)c1 [Alpelisib] (partner 2 µM)
Assay: as above
Conditions: first compound 0.02 µM
How it was run: as §1

Q: How did the relative viability turn out when NCI-H460 was run?
A: The relative viability was 0.465.

Q: H3255 was tested. Which relative viability did it give?
A: Its relative viability is 0.727.

Q: NCI-H1793 was tested. Which relative viability did it give?
A: Its relative viability is 0.822.

Q: With NCI-H23 as the cell line, how does the relative viability read?
A: Its relative viability is 0.659.

Q: With NCI-H838 as the cell line, how does the relative viability read?
A: The relative viability was 0.965.

Q: With EPLC-272H as the cell line, how does the relative viability read?
A: The relative viability was 0.982.

Q: Which relative viability does the source give for NCI-H3122 here?
A: Its relative viability is 0.822.

Q: For NCI-H1915, which relative viability is on record?
A: The relative viability was 1.04.

Q: Which relative viability does the source give for NCI-H727 here?
A: The relative viability was 0.504.

Q: With NCI-H1975 as the cell line, how does the relative viability read?
A: Its relative viability is 0.738.

Q: For LK-2, which relative viability is on record?
A: The relative viability was 0.611.

Q: How did the relative viability turn out when HCC-366 was run?
A: Its relative viability is 0.37.

Q: With NCI-H2087 as the cell line, how does the relative viability read?
A: The relative viability was 1.2.

Q: How did the relative viability turn out when LCLC-97TM1 was run?
A: Its relative viability is 0.187.

Q: Which relative viability does the source give for NCI-H2405 here?
A: The relative viability was 0.672.

Q: NCI-H1993 was tested. Which relative viability did it give?
A: The relative viability was 0.665.

Q: Which relative viability does the source give for PC-3 [JPC-3] here?
A: The relative viability was 1.02.

Q: How did the relative viability turn out when NCI-H2347 was run?
A: Its relative viability is 1.01.

Q: How did the relative viability turn out when LXF-289 was run?
A: The relative viability was 1.07.

Q: For NCI-H358, which relative viability is on record?
A: Its relative viability is 0.804.

Q: Which relative viability does the source give for LC-2-ad here?
A: Its relative viability is 0.943.

Q: Which relative viability does the source give for 201T here?
A: Its relative viability is 0.997.

Q: For NCI-H1666, which relative viability is on record?
A: Its relative viability is 1.

Q: NCI-H322M was tested. Which relative viability did it give?
A: Its relative viability is 0.873.

Q: For HARA, which relative viability is on record?
A: The relative viability was 0.789.

Q: For NCI-H1395, which relative viability is on record?
A: Its relative viability is 1.2.

Same assay, conditions: first compound 0.2 µM

Q: NCI-H460 was tested. Which relative viability did it give?
A: Its relative viability is 0.46.

Q: With H3255 as the cell line, how does the relative viability read?
A: Its relative viability is 0.78.

Q: Which relative viability does the source give for NCI-H1793 here?
A: Its relative viability is 0.583.

Q: For NCI-H23, which relative viability is on record?
A: Its relative viability is 0.65.

Q: Which relative viability does the source give for NCI-H838 here?
A: The relative viability was 0.893.

Q: With EPLC-272H as the cell line, how does the relative viability read?
A: Its relative viability is 0.752.

Q: Which relative viability does the source give for NCI-H3122 here?
A: Its relative viability is 0.735.

Q: Which relative viability does the source give for NCI-H1915 here?
A: The relative viability was 1.05.

Q: For NCI-H727, which relative viability is on record?
A: Its relative viability is 0.552.

Q: NCI-H1975 was tested. Which relative viability did it give?
A: Its relative viability is 0.664.

Q: With HCC-366 as the cell line, how does the relative viability read?
A: Its relative viability is 0.369.

Q: With NCI-H2087 as the cell line, how does the relative viability read?
A: Its relative viability is 1.04.

Q: Which relative viability does the source give for LCLC-97TM1 here?
A: Its relative viability is 0.238.

Q: With NCI-H2405 as the cell line, how does the relative viability read?
A: The relative viability was 0.766.

Q: With NCI-H1993 as the cell line, how does the relative viability read?
A: The relative viability was 0.74.

Q: PC-3 [JPC-3] was tested. Which relative viability did it give?
A: The relative viability was 1.06.

Q: With NCI-H2347 as the cell line, how does the relative viability read?
A: The relative viability was 1.12.

Q: For LXF-289, which relative viability is on record?
A: Its relative viability is 1.03.

Q: For NCI-H358, which relative viability is on record?
A: Its relative viability is 0.778.

Q: With LC-2-ad as the cell line, how does the relative viability read?
A: The relative viability was 0.885.

Q: 201T was tested. Which relative viability did it give?
A: Its relative viability is 1.04.

Q: NCI-H1666 was tested. Which relative viability did it give?
A: Its relative viability is 0.862.

Q: With NCI-H322M as the cell line, how does the relative viability read?
A: The relative viability was 0.695.

Q: For HARA, which relative viability is on record?
A: The relative viability was 0.832.

Q: With NCI-H1395 as the cell line, how does the relative viability read?
A: Its relative viability is 1.11.

Same assay, conditions: first compound 0.6325 µM

Q: With NCI-H460 as the cell line, how does the relative viability read?
A: Its relative viability is 0.448.

Q: H3255 was tested. Which relative viability did it give?
A: Its relative viability is 0.723.

Q: NCI-H1793 was tested. Which relative viability did it give?
A: Its relative viability is 0.545.

Q: Which relative viability does the source give for NCI-H23 here?
A: The relative viability was 0.683.

Q: With NCI-H838 as the cell line, how does the relative viability read?
A: The relative viability was 0.95.

Q: Which relative viability does the source give for EPLC-272H here?
A: Its relative viability is 0.965.

Q: With NCI-H3122 as the cell line, how does the relative viability read?
A: Its relative viability is 0.676.

Q: Which relative viability does the source give for NCI-H1915 here?
A: Its relative viability is 1.1.

Q: How did the relative viability turn out when NCI-H727 was run?
A: Its relative viability is 0.621.

Q: Which relative viability does the source give for NCI-H1975 here?
A: Its relative viability is 0.716.

Q: For LK-2, which relative viability is on record?
A: Its relative viability is 0.635.

Q: HCC-366 was tested. Which relative viability did it give?
A: The relative viability was 0.296.

Q: How did the relative viability turn out when NCI-H2087 was run?
A: The relative viability was 1.04.

Q: How did the relative viability turn out when LCLC-97TM1 was run?
A: The relative viability was 0.205.

Q: With NCI-H2405 as the cell line, how does the relative viability read?
A: Its relative viability is 0.774.

Q: Which relative viability does the source give for NCI-H1993 here?
A: Its relative viability is 0.628.

Q: Which relative viability does the source give for PC-3 [JPC-3] here?
A: The relative viability was 1.07.

Q: For NCI-H2347, which relative viability is on record?
A: Its relative viability is 1.05.

Q: For LXF-289, which relative viability is on record?
A: The relative viability was 1.01.

Q: Which relative viability does the source give for NCI-H358 here?
A: The relative viability was 0.777.

Q: LC-2-ad was tested. Which relative viability did it give?
A: Its relative viability is 0.868.

Q: With 201T as the cell line, how does the relative viability read?
A: The relative viability was 1.03.

Q: For NCI-H1666, which relative viability is on record?
A: The relative viability was 0.88.

Q: How did the relative viability turn out when NCI-H322M was run?
A: The relative viability was 0.779.

Q: For HARA, which relative viability is on record?
A: The relative viability was 0.836.

Q: How did the relative viability turn out when NCI-H1395 was run?
A: Its relative viability is 0.967.

Same assay, conditions: first compound 2 µM

Q: Which relative viability does the source give for NCI-H460 here?
A: The relative viability was 0.487.

Q: How did the relative viability turn out when H3255 was run?
A: Its relative viability is 0.907.

Q: With NCI-H1793 as the cell line, how does the relative viability read?
A: Its relative viability is 0.959.

Q: Which relative viability does the source give for NCI-H23 here?
A: Its relative viability is 0.998.

Q: Which relative viability does the source give for NCI-H838 here?
A: Its relative viability is 1.23.

Q: Which relative viability does the source give for EPLC-272H here?
A: The relative viability was 1.01.

Q: Which relative viability does the source give for NCI-H3122 here?
A: The relative viability was 0.859.

Q: Which relative viability does the source give for NCI-H1915 here?
A: Its relative viability is 1.15.

Q: Which relative viability does the source give for NCI-H727 here?
A: The relative viability was 0.634.

Q: With NCI-H1975 as the cell line, how does the relative viability read?
A: The relative viability was 0.869.

Q: For LK-2, which relative viability is on record?
A: Its relative viability is 1.18.

Q: With HCC-366 as the cell line, how does the relative viability read?
A: The relative viability was 0.463.

Q: With NCI-H2087 as the cell line, how does the relative viability read?
A: The relative viability was 1.19.

Q: With LCLC-97TM1 as the cell line, how does the relative viability read?
A: The relative viability was 0.227.

Q: With NCI-H2405 as the cell line, how does the relative viability read?
A: Its relative viability is 0.949.

Q: How did the relative viability turn out when NCI-H1993 was run?
A: The relative viability was 0.674.

Q: Which relative viability does the source give for PC-3 [JPC-3] here?
A: Its relative viability is 1.02.

Q: With NCI-H2347 as the cell line, how does the relative viability read?
A: Its relative viability is 1.14.

Q: With LXF-289 as the cell line, how does the relative viability read?
A: Its relative viability is 1.05.

Q: NCI-H358 was tested. Which relative viability did it give?
A: The relative viability was 0.973.

Q: Which relative viability does the source give for LC-2-ad here?
A: Its relative viability is 1.02.

Q: How did the relative viability turn out when 201T was run?
A: Its relative viability is 1.02.

Q: NCI-H1666 was tested. Which relative viability did it give?
A: The relative viability was 0.909.

Q: NCI-H322M was tested. Which relative viability did it give?
A: Its relative viability is 0.894.

Q: Which relative viability does the source give for HARA here?
A: The relative viability was 0.921.

Q: For NCI-H1395, which relative viability is on record?
A: Its relative viability is 1.38.
